Read-outs that look alike come from different tables or passages of the source.
Assays:
[1] = tested on: NCI-H358 cells (KRAS G12C mutant); test: NCI-H358 cell proliferation inhibition (CellTiter-Glo); assay type: cell-based; conditions: Homo sapiens, NCI-H358, 72 h
Experimental: The CellTiter-Glo®, assay was used to detect the number of viable cells, in order to evaluate the anti-proliferation efficacy of compounds. […] The compounds were serially diluted 5-fold in DMSO to obtain 8 concentrations, and then further diluted with RPMI-640 (10% FBS) cell culture medium to obtain the working solutions (5′), 20 μL of each working solution was added to the cell culture supernatant in each well, and the plate was further incubated for 3 days at 37° C. with 5% CO2. The plate was then equilibrated with CellTiter-Glo® reagent at room temperature (25° C.) for 10-30 minutes. After aspirating 50 μL of the medium, 50 μL of CellTiter-Glo® reagent was added. The cells were thoroughly mixed with the CellTiter-Glo® reagent using a microplate shaker for 2 minutes, and then incubated at room temperature for 10 minutes. The 96-well plate was placed in a multi-mode microplate reader to record the luminescence values (RLU). The inhibition rate was calculated through the following equation: [formula] Data were analyzed using GraphPad Prism for IC50 values (Note: The negative control refers to the group without inhibitor).

[2] = biological target: PI3Kα (Homo sapiens (Human), UniProt P42336); test: Inhibition of PI3Kα efficacy assay (ADP-Glo kinase assay); assay type: biochemical; conditions: read-out: PI3Kα inhibitory activity (IC50)
Sequence of PI3Kα (P42336 whole entry): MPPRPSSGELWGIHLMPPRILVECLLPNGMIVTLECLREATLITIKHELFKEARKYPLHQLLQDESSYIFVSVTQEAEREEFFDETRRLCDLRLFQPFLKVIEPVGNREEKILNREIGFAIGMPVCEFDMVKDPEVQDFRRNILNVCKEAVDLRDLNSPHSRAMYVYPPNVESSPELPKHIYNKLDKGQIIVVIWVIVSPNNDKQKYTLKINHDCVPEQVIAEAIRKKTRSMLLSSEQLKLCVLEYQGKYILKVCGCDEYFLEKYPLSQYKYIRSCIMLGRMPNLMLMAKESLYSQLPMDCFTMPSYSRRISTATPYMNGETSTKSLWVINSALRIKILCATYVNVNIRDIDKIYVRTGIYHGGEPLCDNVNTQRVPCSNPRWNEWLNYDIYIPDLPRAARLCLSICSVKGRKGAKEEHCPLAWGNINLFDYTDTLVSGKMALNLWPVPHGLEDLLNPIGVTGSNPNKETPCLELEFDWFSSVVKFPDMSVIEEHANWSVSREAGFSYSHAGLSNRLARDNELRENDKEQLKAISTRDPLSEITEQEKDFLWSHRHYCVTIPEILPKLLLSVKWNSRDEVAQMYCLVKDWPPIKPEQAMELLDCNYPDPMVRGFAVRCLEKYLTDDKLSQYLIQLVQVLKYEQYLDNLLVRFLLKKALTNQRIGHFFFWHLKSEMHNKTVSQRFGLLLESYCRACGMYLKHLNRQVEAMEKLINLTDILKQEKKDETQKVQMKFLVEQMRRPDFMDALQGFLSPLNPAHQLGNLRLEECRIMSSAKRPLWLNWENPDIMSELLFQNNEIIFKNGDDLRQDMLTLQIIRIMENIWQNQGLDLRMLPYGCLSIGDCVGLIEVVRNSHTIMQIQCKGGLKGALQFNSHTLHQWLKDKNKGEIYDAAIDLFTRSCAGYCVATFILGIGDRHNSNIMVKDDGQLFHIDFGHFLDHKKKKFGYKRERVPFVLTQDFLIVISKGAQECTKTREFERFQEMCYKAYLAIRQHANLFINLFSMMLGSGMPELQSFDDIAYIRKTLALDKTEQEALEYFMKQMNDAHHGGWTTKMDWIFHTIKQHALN
Sequence of PI3Kα (P27986 whole entry partner): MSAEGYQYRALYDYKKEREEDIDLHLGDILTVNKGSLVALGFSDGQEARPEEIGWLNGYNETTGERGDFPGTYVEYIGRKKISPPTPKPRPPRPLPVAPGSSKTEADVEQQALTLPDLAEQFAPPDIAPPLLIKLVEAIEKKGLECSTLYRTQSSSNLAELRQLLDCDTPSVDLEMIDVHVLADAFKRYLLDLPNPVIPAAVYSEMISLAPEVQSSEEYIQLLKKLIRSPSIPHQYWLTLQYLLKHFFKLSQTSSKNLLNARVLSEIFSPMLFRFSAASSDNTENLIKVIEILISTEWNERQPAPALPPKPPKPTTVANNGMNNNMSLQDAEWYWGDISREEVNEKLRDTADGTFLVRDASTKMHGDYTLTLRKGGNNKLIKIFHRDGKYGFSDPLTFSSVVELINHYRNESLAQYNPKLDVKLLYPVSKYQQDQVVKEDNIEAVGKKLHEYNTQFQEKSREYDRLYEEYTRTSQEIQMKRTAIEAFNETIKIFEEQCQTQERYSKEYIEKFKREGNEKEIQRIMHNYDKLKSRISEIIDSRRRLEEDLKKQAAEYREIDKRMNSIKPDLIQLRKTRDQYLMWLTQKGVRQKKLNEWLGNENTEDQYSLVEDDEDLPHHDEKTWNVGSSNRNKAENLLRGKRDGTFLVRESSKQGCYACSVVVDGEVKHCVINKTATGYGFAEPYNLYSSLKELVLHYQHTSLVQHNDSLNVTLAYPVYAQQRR
Experimental: Inhibition of PI3Kα Efficacy assay The ADP-Glo™ kinase assay was used to assess the inhibition of PI3Kα with our compounds. The utilized proteins and assay reagents were obtained from the ADP-Glo™ Kinase Assay Kit (Promega). Initially, a 2 mM stock solution of the test compound (dissolved in DMSO) was serially diluted in five-fold concentrations using DMSO to obtain eight working solutions 1 (200′). […] Subsequently, 2 μL of 2.5×PI and ATP solution mixture were added to each well, mixed, and incubated at RT for 60 minutes. Then, 5 μL of ADP-Glo (containing 10 mM MgCl2) reagent was added to each well, mixed, and incubated at RT for 40 minutes. Finally, 10 μL of the Kinase Detection Reagent was added to each well, mixed, and incubated at RT for 40 minutes. […] Data were analyzed using GraphPad Prism with log(inhibitor) vs. response—Variable Slope(four parameters) fitting calculations for […]. (Note: The negative control refers to the group without inhibitor, and the blank control refers to the group without enzyme.) The data were presented in Tables 1 to 4.

[3] = H358 cells (G12C mutation), 3 days, Table 6, read-out: NCI-H358 (IC50)

IC50 [1, 3] [nM] | IC50 ([2]; Table 2) [nM] | Structure (SMILES) | other results
5390 | – | C=CC(=O)N1CCN(c2nc(OC[C@@H]3CCCN3C)nc3ccc(-c4cnc(OC)c(NS(=O)(=O)c5ccc(F)cc5F)c4)cc23)C[C@@H]1CC#N [Example 5, N-(5-(4-((S)-4-acryloyl-3-(cyanomethyl)piperazin-1-yl)-2-(((S)-1-methylpyrrolidin-2-yl)methoxy)quinazolin-6-yl)-2-methoxypyridin-3-yl)-2,4-difluorobenzenesulfonamide] | –
102 | – | COc1ncc(-c2ccc3ncnc(N4CCN(C(=O)/C=C/CN(C)C)CC4)c3c2)cc1NS(=O)(=O)c1ccc(F)cc1F [Example 11, (E)-N-(5-(4-(4-(4-(dimethylamino)but-2-enoyl)piperazin-1-yl)quinazolin-6-yl)-2-methoxypyridin-3-yl)-2,4-difluorobenzenesulfonamide] | IC50 ([2]; Table 1): 0.64 nM
– | – | C=CC(=O)N1CCN(c2nc(C)nc3ccc(-c4cnc(OC)c(NS(=O)(=O)c5ccc(F)cc5F)c4)cc23)CC1 [Example 29, N-(5-(4-(4-acryloylpiperazin-1-yl)-2-methylquinazolin-6-yl)-2-methoxypyridin-3-yl)-2,4-difluorobenzenesulfonamide] | IC50 ([2]; Table 1): 41.3 nM
– | 9.1 | C=C(F)C(=O)N1C[C@H](C)N(c2ncnc3ccc(-c4cnc(OC)c(NS(=O)(=O)c5c(F)cccc5F)c4)cc23)C[C@H]1C [Example 52, 2,6-difluoro-N-(5-(4-((2S,5R)-4-(2-fluoroacryloyl)-2.5-dimethylpiperazin-1-yl)quinazolin-6-yl)-2-methoxypyridin-3-yl) benzenesulfonamide] | –
520 | 4.4 | C=CC(=O)N1C[C@H](C)N(c2ncnc3ccc(-c4cnc(OC)c(NS(=O)(=O)c5c(F)cccc5F)c4)cc23)C[C@H]1C [Example 53, N-(5-(4-((2S,5R)-4-acryloyl-2,5-dimethylpiperazin-1-yl)quinazolin-6-yl)-2-methoxypyridin-3-yl)-2,6-difluorobenzene-sulfonamide] | –
10.4 | 2.5 | COc1ncc(-c2ccc3ncnc(N4CCN(C(=O)C5=CC(=O)CCC5)CC4)c3c2)cc1NS(=O)(=O)c1c(F)cccc1F [Example 54, 2,6-difluoro-N-(2-methoxy-5-(4-(4-(3-oxocyclohex-1-ene-1-carbonyl)piperazin-1-yl)quinazolin-6-yl)pyridin-3-yl) benzenesulfonamide] | –
292 | 5.2 | COc1ncc(-c2ccc3ncnc(N4CCC5(CN(C(=O)/C=C/n6ccnn6)C5)C4)c3c2)cc1NS(=O)(=O)c1ccc(F)cc1F [Example 61, (E)-N-(5-(4-(2-(3-(1H-1,2,3-triazol-1-yl)acryloyl)-2,6-diazaspiro [3.4]octan-6-yl)quinazolin-6-yl)-2-methoxy-pyridin-3-yl)-2,4-difluoro-benzene-sulfonamide] | –
19.6 | 6.2 | C=C(C(=O)N1CCN(c2ncnc3ccc(-c4cnc(OC)c(NS(=O)(=O)c5ccc(F)cc5F)c4)cc23)CC1)C(C)C [Example 63, 2,4-difluoro-N-(2-methoxy-5-(4-(4-(3-methyl-2-methylene-butanoyl)piperazin-1-yl)quinazolin-6-yl)pyridin-3-yl) benzene-sulfonamide] | –
24.2 | 9.8 | COC(=O)/C=C/C(=O)N1CCN(c2ncnc3ccc(-c4cnc(OC)c(NS(=O)(=O)c5ccc(F)cc5F)c4)cc23)CC1 [Example 67, methyl (E)-4-(4-(6-(5-((2,4-difluorophenyl)sulfonamido)-6-methoxy-pyridin-3-yl)quinazolin-4-yl)piperazin-1-yl)-4-oxobut-2-enoate] | –
60.7 | – | COc1ncc(-c2ccc3ncnc(N4CCN(C(=O)c5cccc(O)c5)CC4)c3c2)cc1NS(=O)(=O)c1ccc(F)cc1F [Example 69, 2,4-difluoro-N-(5-(4-(4-(3-hydroxy-benzoyl)piperazin-1-yl)quinazolin-6-yl)-2-methoxy-pyridin-3-yl) benzene-sulfonamide] | –
784 | – | CCCC(=O)/C=C/C(=O)N1CCN(c2ncnc3ccc(-c4cnc(OC)c(N(C)S(=O)(=O)c5ccc(F)cc5F)c4)cc23)CC1 [Example 80, (E)-2,4-difluoro-N-(2-methoxy-5-(4-(4-(4-oxohept-2-enoyl)piperazin-1-yl)quinazolin-6-yl)pyridin-3-yl)-N-methylbenzenesulfonamide] | –
1090 | – | COc1ncc(-c2ccc3ncnc(N4CCC5(CN(C(=O)/C=C/C(C)=O)C5)C4)c3c2)cc1N(C)S(=O)(=O)c1ccc(F)cc1F [Example 81, (E)-2,4-difluoro-N-(2-methoxy-5-(4-(2-(4-oxopent-2-enoyl)-2,6-diazaspiro[3.4]octan-6-yl)quinazolin-6-yl)pyridin-3-yl)-N-methylbenzenesulfonamide] | –
213 | 2.8 | C=C(F)C(=O)N1CCN(c2ncnc3ccc(-c4cnc(Cl)c(NS(=O)(=O)c5c(F)cccc5F)c4)cc23)CC1 [Example 85, N-(2-chloro-5-(4-(4-(2-fluoroacryloyl)piperazin-1-yl)quinazolin-6-yl)pyridin-3-yl)-2,6-difluorobenzenesulfonamide] | –
271 | 0.31 | CC(=O)/C=C/C(=O)N1CC2(CCN(c3ncnc4ccc(-c5cnc(Cl)c(NS(=O)(=O)c6c(F)cccc6F)c5)cc34)C2)C1 [Example 86, (E)-N-(2-chloro-5-(4-(2-(4-oxopent-2-enoyl)-2,6-diazaspiro[3.4]octan-6-yl)quinazolin-6-yl)pyridin-3-yl)-2,6-difluorobenzenesulfonamide] | –
131 | 2.4 | CC(=O)/C=C/C(=O)N1CC2(CCN(c3ncnc4ccc(-c5cnc(Cl)c(NS(=O)(=O)c6c(F)cccc6F)c5)cc34)CC2)C1 [Example 87, (E)-N-(2-chloro-5-(4-(2-(4-oxopent-2-enoyl)-2,7-diazaspiro[3.5]nonan-7-yl)quinazolin-6-yl)pyridin-3-yl)-2,6-difluorobenzenesulfonamide] | –
576 | 414 | COc1ccc(-c2ccc3ncnc(N4CCN(C(=O)/C=C/C(C)=O)CC4)c3c2)cc1NS(=O)(=O)c1ccc(F)cc1F [Example 95, (E)-2,4-difluoro-N-(2-methoxy-5-(4-(4-(4-oxopent-2-enoyl)piperazin-1-yl)quinazolin-6-yl)phenyl)benzenesulfonamide] | –
8.5 | 9.8 | C=C(F)C(=O)N1CCN(c2ncnc3ccc(-c4cnc(OC)c(NS(=O)(=O)c5c(F)cc(F)cc5F)c4)cc23)CC1 [Example 98, 2,4,6-trifluoro-N-(5-(4-(4-(2-fluoroacryloyl)piperazin-1-yl)quinazolin-6-yl)-2-methoxypyridin-3-yl)benzenesulfonamide] | –
– | 111 | COc1c(F)cc(-c2ccc3ncnc(N4CCN(C(=O)/C=C/C(C)=O)CC4)c3c2)cc1NS(=O)(=O)c1ccc(F)cn1 [Example 121, (E)-5-fluoro-N-(3-fluoro-2-methoxy-5-(4-(4-(4-oxopent-2-enoyl)piperazin-1-yl)quinazolin-6-yl)phenyl)pyridine-2-sulfonamide] | –
– | – | CC(=O)/C=C/C(=O)N1CCN(c2ncnc3ccc(-c4cnc(CO)c(NS(=O)(=O)c5ccc(F)cc5F)c4)cc23)CC1 [Example 183, (E)-2,4-difluoro-N-(2-(hydroxy-methyl)-5-(4-(4-(4-oxopent-2-enoyl)piperazin-1-yl)quinazolin-6-yl)pyridin-3-yl)benzene-sulfonamide] | IC50 ([2]; Table 4): 5.3 nM
– | – | COc1ncc(-c2ccc3ncnc(N4CCN(C(=O)/C=C/C(C)=O)CC4)c3c2)cc1NS(=O)(=O)c1ccc(C(=O)O)cc1F [Example 209, (E)-3-fluoro-4-(N-(2-methoxy-5-(4-(4-(4-oxopent-2-enoyl)piperazin-1-yl)quinazolin-6-yl)pyridin-3-yl)sulfamoyl)benzoic acid] | IC50 ([2]; Table 4): 0.57 nM
– | – | [2H]C([2H])([2H])n1cc(-c2ccc3ncnc(N4CCN(C(=O)/C=C/C(C)=O)CC4)c3c2)cc(NS(=O)(=O)c2ccc(F)cc2F)c1=O [Example 244, (E)-2,4-difluoro-N-(1-(methyl-d3)-2-oxo-5-(4-(4-(4-oxopent-2-enoyl)piperazin-1-yl)quinazolin-6-yl)-1,2-dihydropyridin-3-yl)benzenesulfonamide] | IC50 ([2]; Table 4): 270 nM

Structure (SMILES) | IC50 [1, 3] [nM] | IC50 ([2]; Table 2) [nM] | other results
COc1ncc(-c2ccc3ncnc(N4CCN(C(=O)/C(F)=C/C(C)=O)CC4)c3c2)cc1NS(=O)(=O)c1ccc(F)cc1F [Example 77, (Z)-2,4-difluoro-N-(5-(4-(4-(2-fluoro-4-oxopent-2-enoyl)piperazin-1-yl)quinazolin-6-yl)-2-methoxypyridin-3-yl)benzenesulfonamide] | – | 3.9 | IC50 ([1]; read-out: NCI-H358 (IC50, nM)): 221 nM

— patent US20250145589A1, “PYRIDINE DERIVATIVE AND USE THEREOF” (SICHUAN HUIYU PHARMACEUTICAL CO., LTD., priority 2021, published 2025)
